Patent US9408926B2, “KDR and VEGF/KDR binding peptides and their use in diagnosis and therapy” (Bracco Suisse S.A., priority 2002, dated 2016)
“And” between values parts separate entries of the source, which are not always exact repeats. Identical values can stand only once.

Key:
[1] = molecular target: KDR/VEGF complex on KDR-transfected 293H cells (Homo sapiens, UniProt P35968)
Description: Another stock solution was prepared in the same manner, but lacking VEGF. […] The mixtures were incubated on a rotator at 4 C for 60 minutes, followed by addition of 50 μL of soft release avidin-sepharose (50% slurry in ddH2O) to remove excess peptides and another incubation for 30 minutes on a rotator at 4 C. Finally, the soft release avidin-sepharose was pelleted by centrifuging at 12,000 rpm for 5 minutes at room temperature, and the resulting supernatants were used for the assays.
This establishes a utility for the assay as useful for targeting the KDR/VEGF complex in vitro and in vivo for diagnostic or therapeutic purposes.

[2] = system: VEGF-induced migration of HUVECs; assay: VEGF-induced HUVEC migration assay; format: cell-based, human; settings: for IC50: VEGF 10 ng/mL, 22 hours, read-out: IC50 for blocking VEGF-induced migration
Description: After 22 hours, quantitation of cell migration/invasion was achieved by post-labeling cells in the insert plates with a fluorescent dye and measuring the fluorescence of the invading/migrating cells in a fluorescent plate reader. The VEGF-induced migration was calculated by subtracting the migration that occurred when only basal medium was placed in the lower chamber of the wells.
(§1) Serum-starved HUVECs were placed, 100,000 cells per well, into the upper chambers of BD fibronectin-coated FluoroBlok 24-well insert plates. […] After 22 hours, quantitation of cell migration/invasion was achieved by post-labeling cells in the insert plates with a fluorescent dye and measuring the fluorescence of the invading/migrating cells in a fluorescent plate reader. The VEGF-induced migration was calculated for each experimental condition by subtracting the amount of migration that occurred when only basal medium was added to the lower chamber of the wells.
as §1, with “reader.” for “reader. The”, “observed in” for “that occurred when only basal medium was added to”, “absence” for “lower chamber”, “VEGF.” for “the wells.”
as §1, with “VEGF-stimulated” for “The VEGF-induced”, “derived” for “calculated for each experimental condition”, “basal migration measured in the absence” for “amount”, “VEGF.” for “migration that occurred when only basal medium was added to the lower chamber of the wells.”
Serum-starved HUVECs were placed, 100,000 cells per well, into the upper chambers of BD fibronectin-coated FluoroBlok 24-well insert plates. […] After 22 hours, quantitation of cell migration/invasion was achieved by post-labeling cells in the insert plates with a fluorescent dye and measuring the fluorescence of the invading/migrating cells in a fluorescent plate reader.

[3] = molecular target: T1, KDR expressed in transiently-transfected 293H cells (Homo sapiens, UniProt P35968); assay: Binding of biotinylated peptide/neutravidin-HRP complexes to KDR-transfected 293H cells; format: cell-based; settings: for Binding of tetrameric peptide/avidin-HRP complexes to KDR-transfected cells: 3.33 nM complex; for Reduction of binding of peptide/avidin HRP complex in presence of serum: 40% rat serum, single concentration 2.22-6.66 nM
T1 construct: Both PCR products were digested with Not1 and ligated together to create the full-length receptor; V5-His (of vector pcDNA6/V5-His C); expressed in transfected cells; host or cells: 293H cells (Invitrogen cat. #11631), transient, lipofectamine 2000

[4] = molecular target: T2, KDR-expressing 293H cells (Homo sapiens, UniProt P35968); assay: Bead-binding assay with peptide-conjugated fluorescent beads; format: cell-based; settings: KDR- versus mock-transfected 293H cells, 40% FBS
T2 construct: Both PCR products were digested with Not1 and ligated together to create the full-length receptor; V5-His (of vector pcDNA6/V5-His C); expressed in transfected cells; host or cells: 293H cells (Invitrogen cat. #11631), transient, lipofectamine 2000
Description: The following procedures were performed to assess the ability of KDR-binding peptides to bind to KDR-expressing cells. In this procedure, KDR-binding peptides containing SEQ ID NOS:264, 337, 363, and 373 were conjugated to fluorescent beads, and their ability to bind to KDR-expressing 293H cells was assessed. The experiments show these peptides can be used to bind particles such as beads to KDR-expressing sites.
As a positive control, biotinylated anti-KDR antibody was incubated with the Neutravidin-coated beads as above, except that 0.03 mg of the biotinylated antibody preparation in PBS (Gibco #14190-136) was used instead of peptide solution. Beads can be stored at 4° C. until needed for up to 1 week.
From the above bead preparations, 0.12 mL was spun for 10 minutes at 2000 rpm in a microcentrifuge at room temperature. The supernatant was removed and 0.06 mL of MES pH 6.0 was added. Each bead solution was then vortexed and sonicated in a water bath 15 min. […] The plates were then read on a Packard FluoroCount fluorometer at excitation 550 nm/emission 620 nm. […]
To calculate the number of beads bound per well, a standard curve with increasing numbers of the same fluorescent beads was included in each assay plate. The standard curve was used to calculate the number of beads bound per well based on the fluorescence intensity of each well.

[5] = system: SW-480 human colon carcinoma cells; assay: In vivo inhibition of tumor growth, SW-480 xenograft in nude mice; settings: for Tumor Weights: 6 mg/kg IV
Description: Female athymic nude mice (Crl:NU/NU-nuBR) at 6-8 weeks of age were used in this study. […] Test Articles and vehicle were administered intraperitoneally (IP), Cisplatin was administered intravenously (IV). Tumor measurements were recorded twice weekly using hand-held calipers. Mice were monitored daily for signs of toxicity and morbidity. At study termination, animals were euthanized by carbon dioxide overdose and necropsied for tissue collection.
A total of nine (9) groups were used in this study. Each group contained ten (10) tumor-bearing mice. Groups 1 and 2 contained untreated and vehicle treated negative control mice, respectively. […] Group 9 contained mice that received cisplatin, a standard chemotherapeutic compound as a positive control.
Dosing began the same day that animals were randomly sorted into groups (Study Day 7). Each dose was removed from the dose vial using aseptic technique for each animal and the injection site was wiped with an alcohol swab prior to dose administration. Doses were administered with a 1.0 mL syringe and a 27-gauge×½″ needle for each mouse
The Test Article- and vehicle-treated mice received daily intraperitoneal (IP) injections for 15 days. Cisplatin was administered every other workday for a total of five (5) doses via an intravenous route.
Clinical Observations of each animal were performed and recorded at least once daily for toxicity, morbidity and mortality. Morbidity included signs of illness such as, but not limited to, emaciation, dehydration, lethargy, hunched posture, unkempt appearance, dyspnea and urine or fecal staining.
In accordance with the protocol tumor measurements were taken twice weekly throughout the study by measuring the length and width of tumors with calibrated calipers. […] Tumor weights were calculated using the following formula: mg=(L×W^2)/2. Animals were euthanized either when mean tumor weight was ≧1000 mg per group over two (2) consecutive measurements, or if tumors became ulcerated, impaired the animal's ability to ambulate or obtain food and water.

[6] = molecular target: KDR; assay: KD, B (μM)
Description: Head of the field: KD, B (μM)
Where the first naming reader finds the target: passage: truncated polypeptides tested for binding to KDR-expressing cells.

[7] = system: KDR-expressing NMU-induced mammary tumor; assay: Contrast ultrasound with D5-containing microbubbles to monitor sunitinib treatment of NMU-induced tumors; format: in vivo, rat; settings: for Area *10 (tumor size, fundamental B-mode): sunitinib 40 mg/kg/day from day 106, values multiplied by 10
Description: Four (4) female OFA rats (Charles River, Lyon, France) were investigated. At the specific age of 42 days, animals received intraperitoneal injection of N-methyl-N-nitrosourea 50 mg/kg (NMU, Sigma-Aldrich, ref D3254) prepared in 0.9% NaCl, in order to develop a KDR-expressing tumor in the animals (see latency period infra). […] Animals received food and water (tap water) ad libitum.
Stock solution was made weekly and stored at 4° C.
At the level of the tumor site, skin was gently shaved and an ultrasound coupling gel (Aquasonic 100, Parker, USA) was applied between the clinical ultrasound probe and the skin.
The linear probe L12-5 was used.
Vials of a contrast agent containing D5 were reconstituted in 2 ml glucose 5%. […] Emulsification was effected at 12′000 rpm (five minutes). The lyophilizate was reconsistituted as described above. The contrast agent was quickly injected through the catheter placed in the caudal vein at the dose of 2 μl gas per kg. […] Injections were performed at a constant rate of 4 ml/min.
Tumor size was assessed in fundamental-B mode […].
Contrast enhancement was quantified from Dicom files using an in-house quantification and providing, among other parameters, mean echo-signal values in areas of interest as a function of time. The amplitude of the echo signal was expressed as linearized echo amplitude values. Individual frames were analyzed, time-intensity curves were generated and Maximum intensity (Imax) was determined as an index of tumor vascularization and late phase opacification (LPO) was determined at 10 min after injection in the median plane of the tumor.

Compound: AGPGPCKGYMPHQCWYMGTGGGK [SEQ ID NO:321]
- Binding of peptide-125I-neutravidin complex in the presence of VEGF ([1]; KDR- versus mock-transfected cells): specifically bound to KDR-transfected 293H cells
- Binding of peptide-125I-neutravidin complex in the absence of VEGF ([1]; VEGF omitted): not where VEGF was omitted

Compound: 5 CF-Gly-N{[CH2CH2C(═O)-Gly-N(CH2CH2C(═O)-Adoa-Thr-Lys-Pro-Pro-Arg-OH]2}2 [Adjunct A]
- Block of VEGF-induced migration ([2]; 100 nM alone): not by 100 nM Adjunct A alone

Compound: GDSRVCWEDSWGGEVCFRYDPGGGK [SEQ ID NO:294]
- Binding of tetrameric peptide/avidin-HRP complexes to KDR-transfected cells [3]: bound to KDR-transfected cells significantly better than to mock-transfected cells
- Reduction of binding of peptide/avidin HRP complex in presence of serum [3]: not significantly affected
- Binding of peptide-conjugated fluorescent beads, JJ spacer [4]: significantly improved the specific binding to KDR

Compound: AGPTWCEDDWYYCWLFGTGGGK [SEQ ID NO:277]
- Reduction of binding of peptide/avidin HRP complex in presence of serum [3]: more than 50%

Compound: N.N.[Cl][Pt][Cl] [Cisplatnin]
- Tumor Weights ([5]; day 4 after cell injection): 34 mg
- Tumor Weights ([5]; day 7 after cell injection): 160 mg
- Tumor Weights ([5]; day 8 after cell injection): 173 mg
- Tumor Weights ([5]; day 11 after cell injection): 407 mg
- Tumor Weights ([5]; day 14 after cell injection): 675 mg
- Tumor Weights ([5]; day 20 after cell injection): 635 mg
- Tumor Weights ([5]; day 21 after cell injection): 839 mg
- Tumor Weights ([5]; day 22 after cell injection): 995 mg

Compound: Ac-AGPTWCEDDWYYCWLFGTGGGK (SEQ ID NO:277){Ac-GDSRVCWEDSWGGEVCFRYDPGGGK (SEQ ID NO:294)[JJ-Glut-NH(CH2)4-(S)—CH(NH2)C(═O)—]—NH2}—NH2 [D25]
- IC50 [2]: 5 nM

Compound: AGPKWCEEDWYYCMITGTGGGK [SEQ ID NO:264]
- Binding of tetrameric peptide/avidin-HRP complexes to KDR-transfected cells [3]: bound to KDR-transfected cells significantly better than to mock-transfected cells
- Reduction of binding of peptide/avidin HRP complex in presence of serum [3]: not significantly affected
- Binding of peptide-conjugated fluorescent beads, JJ spacer [4]: enhanced binding to KDR cells

Compound: SRVCWEDSWGGEVCFRYGGGGK [compound 371]
- Kd [6]: 35 nM

Compound: N.N.[Cl][Pt][Cl] [Cisplatin, reference compound]
- Mean tumor weight on Study Day 22 ([5]; Group 9, intravenous, five doses): 995 mg

Compound: CC(C)c1cc(/C=C(\C#N)C(=O)NCCCc2ccccc2)cc(C(C)C)c1O [SU-1498, reference compound]
- VEGF-induced migration blocked ([2]; 3 micromolar): 47%

Compound: VCWEDSWGGEVCFGGGK [compound 368]
- Kd [6]: 910 nM

Compound: Ac-AQDWYYDEILSMADQLRHAFLSGGGGGK [SEQ ID NO:356]
- Reduction of binding of peptide/avidin HRP complex in presence of serum [3]: not significantly affected

Compound: CCN(CC)CCNC(=O)c1c(C)[nH]c(/C=C2\C(=O)Nc3ccc(F)cc32)c1C [sunitinib, Sunitinib]
- Change of tumor size as a percentage of the tumor prior sunitinib treatment ([7]; 48 hours after treatment, 40 mg/kg/day oral, individual rats, 40 mg/kg/day): −4.6% and −0.7% and 30%
- Change of Imax ([7]; 48 hours after treatment, individual rats no. 1, 2, 3): −11% and +23% and +11%
- Area *10 (tumor size, fundamental B-mode) ([7]; rat no. 1, day 108): 20.80
- Area *10 (tumor size, fundamental B-mode) ([7]; rat no. 1, day 115): 11.00
- Area *10 (tumor size, fundamental B-mode) ([7]; rat no. 1, day 116): 10.10
- Area *10 (tumor size, fundamental B-mode) ([7]; rat no. 2, day 108): 26.70
- Area *10 (tumor size, fundamental B-mode) ([7]; rat no. 2, day 109): 20.20
- Area *10 (tumor size, fundamental B-mode) ([7]; rat no. 3, day 108): 7.5
- Area *10 (tumor size, fundamental B-mode) ([7]; rat no. 3, day 114): 2.9
- Area *10 (tumor size, fundamental B-mode) ([7]; rat no. 3, day 116): 3.0

Compound: GDSRVCWEDSWGGEVCFRYGGGK [compound 372]
- Kd [6]: 60 nM

Compound: GDSRVCWEDSWGGEVCFGGGK [compound 369]
- Kd [6]: 1300 nM

Compound: Ac-AQDWYYDEILJGRGGRGGRGGK (SEQ ID NO:478) {K[Ac-VCWEDSWGGEVCFRYDPGGGK (SEQ ID NO:337) (JJ-Glut)-NH2]}—NH2 [D17]
- IC50 [2]: ~250 nM
